According to ChEMBL document CHEMBL1201862, “PubChem BioAssay data set” (2004):
Active and inactive are the calls of the source.

Experiments:
Aspartyl aminopeptidase = Aspartyl aminopeptidase (Plasmodium falciparum 3D7, UniProt Q8I2J3)
Procathepsin L = Procathepsin L (Homo sapiens, UniProt P07711)
Large T antigen = Large T antigen (Simian virus 40, UniProt P03070); assay type: functional, Betapolyomavirus macacae;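 note: Confirmatory-stage PubChem screen for compounds that inhibit SV40 T antigen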
HeLa = experiment: Cytotoxicity counterscreen assay for transcriptional activators of heat shock protein 70 (Hsp70). [Related pubchem assays: 1203, 1252 ]; assay type: functional; conditions: Homo sapiens;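 note: cells exposed to compound for 16 hours before readout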
Vero = experiment: Vero cell viability after compound exposure – synthesized analogs, set II, cytotoxicity control for West Nile virus antiviral project, SAR follow-up (AID 2402); assay type: functional; conditions: Chlorocebus sabaeus
[1] = A Cell Based Assay for the Identification of Probe candidate Compounds with Anti- Venezuelan Equine Encephalitis virus. [Related pubchem assays: 2409, 2419, 1621, 2238, 2405, 2024, 2065, 2402, 2414, 1635, 1650, 2244 ]; assay type: functional
Leucine aminopeptidase = target: T1, Leucine aminopeptidase (Plasmodium falciparum 3D7, UniProt Q8IL11); experiment: P. falciparum M17LAP inhibitors, primary screen, biochemical, fluorogenic H-Leu-NHMec substrate, 1536-well (AID 1619); assay type: functional
T1 sequence (Q8IL11 whole entry): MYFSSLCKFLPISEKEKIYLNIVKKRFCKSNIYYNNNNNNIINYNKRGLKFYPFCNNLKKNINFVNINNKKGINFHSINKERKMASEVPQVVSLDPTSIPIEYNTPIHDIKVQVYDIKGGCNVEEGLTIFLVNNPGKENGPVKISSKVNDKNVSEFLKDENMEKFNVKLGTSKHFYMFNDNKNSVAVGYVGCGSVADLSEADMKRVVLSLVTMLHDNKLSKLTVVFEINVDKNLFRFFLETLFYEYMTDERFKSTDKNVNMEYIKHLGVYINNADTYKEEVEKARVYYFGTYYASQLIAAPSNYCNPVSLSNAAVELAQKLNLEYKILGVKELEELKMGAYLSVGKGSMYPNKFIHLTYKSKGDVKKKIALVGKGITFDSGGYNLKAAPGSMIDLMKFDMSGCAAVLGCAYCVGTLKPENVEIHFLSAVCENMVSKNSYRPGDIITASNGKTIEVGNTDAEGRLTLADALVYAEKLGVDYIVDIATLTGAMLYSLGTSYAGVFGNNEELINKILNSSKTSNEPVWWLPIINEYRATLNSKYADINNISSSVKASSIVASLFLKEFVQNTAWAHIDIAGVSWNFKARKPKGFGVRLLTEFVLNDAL

[2] = Counterscreen for IDE inhibitors: Luminescence-based cell-based high throughput dose response assay to identify compounds that are cytotoxic to HEK cells. [Related pubchem assays: 434962 (Primary screen (IDE inhibitors in singlicate)), 449730 (Counterscreen (Cytotoxicity in triplicate)), 435028 (Confirmation (IDE inhibitors in triplicate)) …; assay type: functional; conditions: HEK293
Insulin-degrading enzyme = Insulin-degrading enzyme (Homo sapiens, UniProt P14735); experiment: Dose Response: Fluorescence polarization-based cell-based high throughput dose response assay for inhibitors of insulin-degrading enzyme (IDE). [Related pubchem assays: 434962 (Primary screen (IDE inhibitors in singlicate)), 449730 (Counterscreen (Cytotoxicity in triplicate)), 435028 (Confirmation (IDE inhibitors in triplicate)), 434984 (Summary …; assay type: functional
[3] = target: Neuropeptide Y receptor type 1 (Homo sapiens, UniProt P25929); assay type: functional;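 note: HEK293 cells with a CNG channel challenged with NPY then isoproterenol; potency as antagonist that reverses NPY suppression of cAMP signal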
[4] = target: Neuropeptide Y receptor type 2 (Homo sapiens, UniProt P49146); assay type: functional, cell-based;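 note: HEK293 cells expressing the receptor and a CNG channel; stimulus was NPY near EC95 followed by isoproterenol to raise cAMP; antagonist potency measured as restoring cAMP signal that NPY suppresses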
Chain of Neuropeptide Y receptor type 2 (P49146 whole entry): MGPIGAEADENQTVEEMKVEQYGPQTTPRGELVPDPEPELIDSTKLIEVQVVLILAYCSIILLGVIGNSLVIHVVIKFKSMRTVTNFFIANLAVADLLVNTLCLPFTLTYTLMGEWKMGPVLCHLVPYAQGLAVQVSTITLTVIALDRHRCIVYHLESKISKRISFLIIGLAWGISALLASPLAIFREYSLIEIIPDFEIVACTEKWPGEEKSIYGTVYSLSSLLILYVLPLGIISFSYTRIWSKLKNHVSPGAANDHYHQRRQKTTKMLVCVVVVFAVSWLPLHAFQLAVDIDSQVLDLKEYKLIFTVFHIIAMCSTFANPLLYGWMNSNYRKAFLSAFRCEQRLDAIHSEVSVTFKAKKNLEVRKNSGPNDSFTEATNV

Chain of Insulin-degrading enzyme (P14735 whole entry): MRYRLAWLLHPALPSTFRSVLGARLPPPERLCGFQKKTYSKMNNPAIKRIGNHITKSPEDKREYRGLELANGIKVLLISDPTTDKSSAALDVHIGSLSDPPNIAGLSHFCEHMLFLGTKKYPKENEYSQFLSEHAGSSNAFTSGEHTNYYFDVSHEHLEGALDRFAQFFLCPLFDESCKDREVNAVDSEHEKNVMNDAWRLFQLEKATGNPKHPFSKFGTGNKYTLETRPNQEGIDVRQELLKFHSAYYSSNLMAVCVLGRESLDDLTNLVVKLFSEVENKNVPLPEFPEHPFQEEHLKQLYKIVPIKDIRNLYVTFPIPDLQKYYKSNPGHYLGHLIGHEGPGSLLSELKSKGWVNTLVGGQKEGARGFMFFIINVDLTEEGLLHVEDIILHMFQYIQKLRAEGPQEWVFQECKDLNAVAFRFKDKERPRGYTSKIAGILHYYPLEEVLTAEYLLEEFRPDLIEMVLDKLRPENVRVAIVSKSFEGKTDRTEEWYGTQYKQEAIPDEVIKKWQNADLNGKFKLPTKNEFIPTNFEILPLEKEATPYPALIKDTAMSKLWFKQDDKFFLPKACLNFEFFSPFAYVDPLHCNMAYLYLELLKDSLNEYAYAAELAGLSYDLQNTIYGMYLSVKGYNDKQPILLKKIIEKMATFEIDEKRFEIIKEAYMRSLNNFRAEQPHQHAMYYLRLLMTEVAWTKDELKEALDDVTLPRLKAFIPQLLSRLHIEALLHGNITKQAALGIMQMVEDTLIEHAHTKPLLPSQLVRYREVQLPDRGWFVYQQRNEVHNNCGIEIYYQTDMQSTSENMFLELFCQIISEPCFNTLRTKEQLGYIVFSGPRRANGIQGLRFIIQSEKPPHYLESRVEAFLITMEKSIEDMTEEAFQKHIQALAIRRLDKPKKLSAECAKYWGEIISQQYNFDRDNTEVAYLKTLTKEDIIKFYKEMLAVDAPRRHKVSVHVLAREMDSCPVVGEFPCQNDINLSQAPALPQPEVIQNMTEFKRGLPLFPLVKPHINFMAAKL
Chain of Aspartyl aminopeptidase (Q8I2J3 whole entry): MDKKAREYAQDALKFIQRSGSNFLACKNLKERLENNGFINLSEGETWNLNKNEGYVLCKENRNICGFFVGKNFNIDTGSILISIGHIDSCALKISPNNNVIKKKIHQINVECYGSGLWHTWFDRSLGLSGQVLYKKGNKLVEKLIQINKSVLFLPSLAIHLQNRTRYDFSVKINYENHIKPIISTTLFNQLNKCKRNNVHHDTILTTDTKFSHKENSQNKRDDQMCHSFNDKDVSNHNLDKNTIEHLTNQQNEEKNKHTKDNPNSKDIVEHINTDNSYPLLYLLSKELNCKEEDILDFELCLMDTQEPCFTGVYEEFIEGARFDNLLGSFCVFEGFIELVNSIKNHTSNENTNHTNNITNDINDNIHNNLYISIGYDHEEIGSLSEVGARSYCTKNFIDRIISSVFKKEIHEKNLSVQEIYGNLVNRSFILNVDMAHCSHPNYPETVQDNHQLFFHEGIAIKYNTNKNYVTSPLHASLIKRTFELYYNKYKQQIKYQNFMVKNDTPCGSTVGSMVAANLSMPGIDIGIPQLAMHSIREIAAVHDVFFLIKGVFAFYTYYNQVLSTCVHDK
Chain of Procathepsin L (P07711 whole entry): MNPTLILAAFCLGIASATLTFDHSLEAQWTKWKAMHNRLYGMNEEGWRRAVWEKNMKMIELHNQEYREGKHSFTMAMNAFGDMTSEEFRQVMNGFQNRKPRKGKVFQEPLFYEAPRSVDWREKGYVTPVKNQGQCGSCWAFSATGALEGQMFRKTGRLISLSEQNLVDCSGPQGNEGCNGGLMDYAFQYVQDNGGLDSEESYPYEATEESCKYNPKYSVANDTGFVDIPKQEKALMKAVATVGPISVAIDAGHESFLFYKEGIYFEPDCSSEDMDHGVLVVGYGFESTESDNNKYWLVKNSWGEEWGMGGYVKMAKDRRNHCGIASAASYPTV
Chain of Neuropeptide Y receptor type 1 (P25929 whole entry): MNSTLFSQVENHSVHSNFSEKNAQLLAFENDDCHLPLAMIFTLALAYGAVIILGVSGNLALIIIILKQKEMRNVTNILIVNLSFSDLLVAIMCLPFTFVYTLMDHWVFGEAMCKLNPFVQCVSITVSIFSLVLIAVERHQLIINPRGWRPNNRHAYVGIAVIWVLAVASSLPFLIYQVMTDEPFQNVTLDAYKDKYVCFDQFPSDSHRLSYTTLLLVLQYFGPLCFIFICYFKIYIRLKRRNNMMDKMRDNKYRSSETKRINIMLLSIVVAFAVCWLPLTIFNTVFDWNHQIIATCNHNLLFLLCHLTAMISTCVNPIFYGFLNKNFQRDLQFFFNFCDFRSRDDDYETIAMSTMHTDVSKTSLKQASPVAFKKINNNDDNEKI
Chain of Large T antigen (P03070 whole entry): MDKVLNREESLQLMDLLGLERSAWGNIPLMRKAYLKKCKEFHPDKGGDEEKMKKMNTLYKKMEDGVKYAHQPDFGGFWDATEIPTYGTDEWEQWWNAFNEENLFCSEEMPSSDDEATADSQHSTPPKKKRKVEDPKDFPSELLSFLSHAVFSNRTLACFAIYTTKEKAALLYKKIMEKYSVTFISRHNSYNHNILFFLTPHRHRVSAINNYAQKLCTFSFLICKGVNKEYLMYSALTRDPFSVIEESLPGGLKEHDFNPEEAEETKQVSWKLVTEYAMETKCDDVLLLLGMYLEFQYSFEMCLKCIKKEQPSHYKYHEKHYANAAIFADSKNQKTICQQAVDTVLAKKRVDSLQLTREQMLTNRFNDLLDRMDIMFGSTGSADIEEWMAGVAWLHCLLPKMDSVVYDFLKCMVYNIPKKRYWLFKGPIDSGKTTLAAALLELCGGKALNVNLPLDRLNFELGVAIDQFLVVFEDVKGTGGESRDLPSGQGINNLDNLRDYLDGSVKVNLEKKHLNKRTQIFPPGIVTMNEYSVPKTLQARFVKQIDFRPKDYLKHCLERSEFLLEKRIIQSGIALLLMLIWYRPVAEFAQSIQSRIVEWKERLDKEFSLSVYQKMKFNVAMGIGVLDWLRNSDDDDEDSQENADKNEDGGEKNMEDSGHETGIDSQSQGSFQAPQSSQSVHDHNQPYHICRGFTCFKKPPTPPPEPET

N/C(=N\N=C\c1ccc(O)cc1O)N[N+](=O)[O-]
IC50 (Aspartyl aminopeptidase): 4.61 µM (active) | IC50 (Procathepsin L): > 59.6 µM (not active) | IC50 (Large T antigen): 8.78 µM (active)

CN(Cc1ccco1)C(=O)Cn1nc(-c2ccc(Cl)cc2)ccc1=O
CC50 (HeLa): > 99 µM (not active)

COc1ccc(Cn2nc(C)cc2OC(=O)c2ccccc2)cc1
CC50 (Vero): > 200 µM (active) | IC50 [1]: > 133 µM (active)

O=C(O)CC12CC3CC(C1)CC(n1ncc(NCc4ccc(F)cc4Cl)c(Cl)c1=O)(C3)C2
IC50 (Leucine aminopeptidase): 32.1 µM (active) | IC50 [2]: > 55.7 µM (not active) | IC50 (Insulin-degrading enzyme): 18.1 µM (not active)

CN1CCC(Oc2ccccc2Sc2ccccc2)CC1
IC50 [3]: 13.6 µM (not active) | IC50 [4]: 17.5 µM (not active)
